Patent US11299480B2, “2-arylsulfonamido-N-arylacetamide derivatized STAT3 inhibitors” (University of Hawaii, priority 2017, dated 2022)
In brackets after ≈: the same amount, converted by molar mass. Like-named read-outs stand apart in the source and are kept apart here.

Key:
[1] = biological target: Stat3 (Mus musculus, UniProt P42227); format: biochemical
Method: FIG. 1. Effect of select compounds of the present invention on Stat3 DNA-binding activity in vitro. […] Positions of Stat3:DNA complexes in gel are labeled; control lanes (0) represent nuclear extracts pre-treated with 10% DMSO.
Except where indicated, nuclear extracts were pre-incubated with compound for 30 min at room temperature prior to incubation with the radiolabeled probe for 30 min at 30° C. before subjecting to EMSA analysis. Where appropriate, bands corresponding to Stat3:DNA complexes were scanned and quantified for each concentration of compound using ImageJ and plotted as percent of control (DMSO) against concentration of compound, from which the IC50 values were derived.

[2] = physchem; conditions: simulated gastric fluid (SGF), pH 1.2, simulated gastric fluid
[3] = Aqueous solubility (PBS, SGF, SIF)
[4] = Stat3 DNA-binding activity in vitro, nuclear extracts pre-incubated with compound 30 min at room temperature, hSIE probe, read-out: EMSA IC50

Stat3, sequence (P42227 2-770 limits assumed): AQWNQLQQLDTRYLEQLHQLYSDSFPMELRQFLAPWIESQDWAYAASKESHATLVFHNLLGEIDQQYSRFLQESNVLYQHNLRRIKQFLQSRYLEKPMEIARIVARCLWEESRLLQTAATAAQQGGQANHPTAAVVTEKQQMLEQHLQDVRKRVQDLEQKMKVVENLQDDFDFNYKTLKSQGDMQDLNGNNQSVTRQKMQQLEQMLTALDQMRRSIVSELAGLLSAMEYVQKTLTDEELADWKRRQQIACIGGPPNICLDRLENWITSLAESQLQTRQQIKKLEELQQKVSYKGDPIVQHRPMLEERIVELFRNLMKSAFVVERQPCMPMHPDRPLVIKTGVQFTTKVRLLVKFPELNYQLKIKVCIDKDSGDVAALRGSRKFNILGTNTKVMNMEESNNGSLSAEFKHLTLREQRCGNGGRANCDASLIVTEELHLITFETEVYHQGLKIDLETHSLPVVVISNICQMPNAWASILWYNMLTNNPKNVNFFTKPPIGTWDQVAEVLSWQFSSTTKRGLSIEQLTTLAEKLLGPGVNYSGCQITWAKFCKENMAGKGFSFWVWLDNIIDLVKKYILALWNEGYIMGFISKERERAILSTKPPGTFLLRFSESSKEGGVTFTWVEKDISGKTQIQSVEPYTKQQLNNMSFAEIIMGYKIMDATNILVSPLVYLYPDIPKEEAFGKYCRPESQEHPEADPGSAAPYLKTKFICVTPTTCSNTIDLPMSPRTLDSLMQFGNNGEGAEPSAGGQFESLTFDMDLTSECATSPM

With `CC(C)(C)c1ccc(CN(C(=O)[C@H]2CCN2S(=O)(=O)c2c(F)c(F)c(F)c(F)c2F)c2ccc(C(=O)O)c(O)c2)cc1` [Example 130, (R)-4-(N-(4-(tert-butyl)benzyl)-1-((perfluorophenyl)sulfonyl)azetidine-2-carboxamido)-2-hydroxybenzoic acid] the IC50 [1, 4] was 2170 ± 298 nM.

`O=C([C@H]1CCN1S(=O)(=O)c1c(F)c(F)c(F)c(F)c1F)N(Cc1ccc(C2CCCCC2)cc1)c1ccc2nc[nH]c2c1` [Example 99, (R)—N-(M-benzo[d]imidazol-6-yl)-N-(4-cyclohexylbenzyl)-1-((perfluorophenyl)sulfonyl)azetidine-2-carboxamide] gave an IC50 [1, 4] of 2350 ± 546 nM.

Molecule `O=C(O)c1ccc(N(Cc2ccc(C3CCCCC3)cc2)C(=O)[C@H]2CCCN2S(=O)(=O)c2c(F)c(F)c(F)c(F)c2F)c(F)c1` [Example 39, (R)-4-(N-(4-cyclohexylbenzyl)-1-((perfluorophenyl)sulfonyl)pyrrolidine-2-carboxamido)-3-fluorobenzoic acid] has an IC50 [1, 4] of 5300 ± 400 nM.

For `O=C(NO)c1ccc(N(Cc2ccc(C3CCCCC3)cc2)C(=O)[C@H]2CCN2S(=O)(=O)c2c(F)c(F)c(F)c(F)c2F)cc1O` [Example 85, (R)—N-(4-cyclohexylbenzyl)-N-(3-hydroxy-4-(hydroxycarbamoyl)phenyl)-1-((perfluorophenyl)sulfonyl)azetidine-2-carboxamide], the IC50 [1, 4] was 1320 ± 360 nM.

For `COC(=O)c1ccc(N(Cc2ccc(C3CCCCC3)nc2)C(=O)[C@H]2CCN2S(=O)(=O)c2c(F)c(F)c(F)c(F)c2F)cc1O` [Example 92, Methyl (R)-4-(N-((6-cyclohexylpyridin-3-yl)methyl)-1-((perfluorophenyl)sulfonyl)azetidine-2-carboxamido)-2-hydroxybenzoate], the IC50 [1, 4] was 1050 ± 125 nM.

With `O=C(NO)c1ccc(N(Cc2ccc(C3CCCCC3)cc2)C(=O)[C@H]2CCN2S(=O)(=O)c2c(F)c(F)c(F)c(F)c2F)c(F)c1` [Example 50, (R)—N-(4-cyclohexylbenzyl)-N-(2-fluoro-4-(hydroxycarbamoyl)phenyl)-1-((perfluorophenyl)sulfonyl)azetidine-2-carboxamide] the IC50 [1, 4] was 1750 ± 190 nM.

For `C[C@H](C(=O)N(Cc1ccc(C2CCCCC2)cc1)c1ccc(C(=O)NO)cc1F)N(C)S(=O)(=O)c1c(F)c(F)c(F)c(F)c1F` [Example 38, (R)-4-(N-(4-Cyclohexylbenzyl)-2-((2,3,4,5,6-pentafluoro-N-methylphenyl)sulfonamido)propanamido)-3-fluoro-N-hydroxybenzamide], the solubility [2] was 0.8 µg/mL (≈ 1.22 µM), the “solubility in PBS buffer pH 7.4” value [3] was 4.7 μg/mL and the “solubility in simulated intestinal fluid (SIF)” value [3] was 72 µg/mL (≈ 109 µM). For the same molecule, the “Solubility PBS” value ([3]; PBS buffer pH 7.4) was 4.7 micrograms/milliliter and the “Solubility SIF” value ([3]; simulated intestinal fluid) was 72 micrograms/milliliter.

`O=C(O)c1ccc(N(Cc2ccc(C3CCCCC3)cn2)C(=O)[C@H]2CCN2S(=O)(=O)c2c(F)c(F)c(F)c(F)c2F)cc1F` [Example 116, (R)-4-(N-((5-cyclohexylpyridin-2-yl)methyl)-1-((perfluorophenyl)sulfonyl)azetidine-2-carboxamido)-2-fluorobenzoic acid] showed an IC50 [1, 4] of 856 ± 112 nM.

Work on `O=C(O)c1ccc(N(Cc2ccc(C3CCCC3)cn2)C(=O)[C@H]2CCN2S(=O)(=O)c2c(F)c(F)c(F)c(F)c2F)c(F)c1` [Example 124, (R)-4-(N-((5-cyclopentylpyridin-2-yl)methyl)-1-((perfluorophenyl)sulfonyl)azetidine-2-carboxamido)-3-fluorobenzoic acid] yielded an IC50 [1, 4] of 1180 ± 187 nM.

`NC(=O)c1ccc(N(Cc2ccc(C3CCCCC3)cn2)C(=O)[C@H]2CCN2S(=O)(=O)c2c(F)c(F)c(F)c(F)c2F)cc1O` [Example 143, (R)—N-(4-carbamoyl-3-hydroxyphenyl)-N-((5-cyclohexylpyridin-2-yl)methyl)-1-((perfluorophenyl)sulfonyl)azetidine-2-carboxamide] showed an IC50 ([1]; EMSA, read-out: IC50, inhibition of Stat3 DNA-binding activity in vitro) of 664 ± 167 nM and an IC50 [1, 4] of 664 ± 167 nM.

In the case of `O=C(O)c1ccc(N(Cc2ccc(C3CCCCC3)cn2)C(=O)[C@H]2CCN2S(=O)(=O)c2c(F)c(F)c(F)c(F)c2F)c(F)c1` [Example 108, (R)-4-(N-((5-cyclohexylpyridin-2-yl)methyl)-1-((perfluorophenyl)sulfonyl)azetidine-2-carboxamido)-3-fluorobenzoic acid], the IC50 [1, 4] is reported as 755 ± 110 nM.

`Cc1cc(C(=O)O)cc(C)c1N(Cc1ccc(C2CCCCC2)cc1)C(=O)[C@@H](C)N(C)S(=O)(=O)c1c(F)c(F)c(F)c(F)c1F` [Example 47, (R)-4-(N-(4-cyclohexylbenzyl)-2-((2,3,4,5,6-pentafluoro-N-methylphenyl)sulfonamido)propanamido)-3,5-dimethylbenzoic acid] showed an IC50 [1, 4] of 4200 ± 700 nM.

With `O=C(NO)c1cc(F)c(N(Cc2ccc(C3CCOCC3)cc2)C(=O)[C@H]2CCN2S(=O)(=O)c2c(F)c(F)c(F)c(F)c2F)cc1O` [Example 89, (R)—N-(2-fluoro-5-hydroxy-4-(hydroxycarbamoyl)phenyl)-1-((perfluorophenyl)sulfonyl)-N-(4-(tetrahydro-2H-pyran-4-yl)benzyl)azetidine-2-carboxamide] the IC50 [1, 4] was 2110 ± 240 nM.

Work on `O=C(O)c1ccc(N(Cc2ccc(C3CCOCC3)cc2)C(=O)[C@H]2CCCN2S(=O)(=O)c2c(F)c(F)c(F)c(F)c2F)cc1O` [Example 27, (R)-2-Hydroxy-4-(1-((pentafluorophenyl)sulfonyl)-N-(4-(tetrahydro-2H-pyran-4-yl)benzyl)pyrrolidine-2-carboxamido)benzoic acid] yielded an IC50 [1, 4] of 5400 nM.

For `O=C(O)c1ccc(N(Cc2ccc(C3CCOC3)cc2)C(=O)[C@H]2CCCN2S(=O)(=O)c2c(F)c(F)c(F)c(F)c2F)cc1O` (stereo partly drawn) [Example 29, 2-Hydroxy-4-((2R)-1-((pentafluorophenyl)sulfonyl)-N-(4-(tetrahydrofuran-3-yl)benzyl)pyrrolidine-2-carboxamido)benzoic acid], the IC50 [1, 4] was 4500 ± 1000 nM.

`O=C(NO)c1ccc(N(Cc2ccc(C3CCCC3)cc2)C(=O)[C@H]2CCN2S(=O)(=O)c2c(F)c(F)c(F)c(F)c2F)cc1` [Example 88, (R)—N-(4-cyclopentylbenzyl)-N-(4-(hydroxycarbamoyl)phenyl)-1-((perfluorophenyl)sulfonyl) azetidine-2-carboxamide] showed an IC50 [1, 4] of 2250 ± 720 nM.

`O=C([C@H]1CCN1S(=O)(=O)c1c(F)c(F)c(F)c(F)c1F)N(Cc1ccc(C2CCCCC2)cn1)c1ccc2c(=O)[nH]ncc2c1` [Example 102, (R)—N-((5-cyclohexylpyridin-2-yl)methyl)-N-(1-oxo-1,2-dihydrophthalazin-6-yl)-1-((perfluorophenyl)sulfonyl)azetidine-2-carboxamide] showed an IC50 [1, 4] of 663 ± 182 nM.

With `O=C(O)c1ccc(N(Cc2ccc(C3CCCCC3)cc2)C(=O)[C@H]2CCCN2S(=O)(=O)c2c(F)c(F)c(F)c(F)c2F)cc1Cl` [Example 46, (R)-2-chloro-4-(N-(4-cyclohexylbenzyl)-1-((perfluorophenyl)sulfonyl)pyrrolidine-2-carboxamido)benzoic acid] the IC50 [1, 4] was 3800 ± 800 nM.

Work on `O=C(NO)c1ccc(N(Cc2ccc(C3CCOCC3)cc2)C(=O)[C@H]2CCN2S(=O)(=O)c2c(F)c(F)c(F)c(F)c2F)cc1` [Example 87, (R)—N-(4-(hydroxycarbamoyl)phenyl)-1-((perfluorophenyl)sulfonyl)-N-(4-(tetrahydro-2H-pyran-4-yl)benzyl)azetidine-2-carboxamide] yielded an IC50 [1, 4] of 2920 ± 120 nM.

Work on `O=C(NO)c1ccc(N(Cc2ccc(C3CCOCC3)cc2)C(=O)[C@H]2CCN2S(=O)(=O)c2c(F)c(F)c(F)c(F)c2F)cc1O` [Example 84, (R)—N-(3-hydroxy-4-(hydroxycarbamoyl)phenyl)-1-((perfluorophenyl)sulfonyl)-N-(4-(tetrahydro-2H-pyran-4-yl)benzyl)azetidine-2-carboxamide] yielded an IC50 [1, 4] of 2070 ± 120 nM.

In the case of `O=C(O)c1ccc(N(Cc2ccc(C3CCCCC3)cc2)C(=O)[C@H]2CCCCN2S(=O)(=O)c2c(F)c(F)c(F)c(F)c2F)cc1O` [Example 32, (R)-4-(N-(4-cyclohexylbenzyl)-1-((pentafluorophenyl)sulfonyl)piperidine-2-carboxamido)-2-hydroxybenzoic acid], the IC50 [1, 4] is reported as 5400 ± 1600 nM.

With `O=C([C@H]1CCN1S(=O)(=O)c1c(F)c(F)c(F)c(F)c1F)N(Cc1cnc(C2CCCCC2)cn1)c1ccc2c(=O)[nH]cnc2c1` [Example 151, (R)—N-((5-cyclohexylpyrazin-2-yl)methyl)-N-(4-oxo-3,4-dihydroquinazolin-7-yl)-1-((perfluorophenyl)sulfonyl)azetidine-2-carboxamide] the IC50 [1, 4] was 1460 ± 151 nM.

`CC(C)(C)c1ccc(CN(C(=O)[C@H]2CCN2S(=O)(=O)c2c(F)c(F)c(F)c(F)c2F)c2ccc(C(=O)O)cc2F)cc1` [Example 131, (R)-4-(N-(4-(tert-butyl)benzyl)-1-((perfluorophenyl)sulfonyl)azetidine-2-carboxamido)-3-fluorobenzoic acid] gave an IC50 [1, 4] of 3550 ± 97 nM.

In the case of `O=C(NO)c1ccc(N(Cc2ccc(C3CCCCC3)cc2)C(=O)[C@H]2CCN2S(=O)(=O)c2c(F)c(F)c(F)c(F)c2F)cc1` [Example 83, (R)—N-(4-cyclohexylbenzyl)-N-(4-(hydroxycarbamoyl)phenyl)-1-((perfluorophenyl)sulfonyl)azetidine-2-carboxamide], the IC50 [1, 4] is reported as 2510 ± 230 nM.

Molecule `O=C(O)c1ccc(N(Cc2ccc(C3CCCC3)cc2)C(=O)[C@H]2CCCN2S(=O)(=O)c2c(F)c(F)c(F)c(F)c2F)cc1O` [Example 79, (R)-4-(N-(4-cyclopentylbenzyl)-1-((perfluorophenyl)sulfonyl)pyrrolidine-2-carboxamido)-2-hydroxybenzoic acid] has an IC50 [1, 4] of 3600 ± 300 nM.
